Measured values as given in patent US9834534B2, “Neuraminidase inhibitor compounds, compositions and methods for the use thereof in anti-viral treatments” (THE UNIVERSITY OF BRITISH COLUMBIA, priority 2009, dated 2017).

What was measured:
H1N1 OsR = H1N1 OsR (Influenza A virus (H1N1), UniProt Q289M4)
H1N1 = H1N1 (Influenza A virus (H1N1), UniProt Q289M4)
Sequence of H1N1 (Q289M4 whole entry, looked up): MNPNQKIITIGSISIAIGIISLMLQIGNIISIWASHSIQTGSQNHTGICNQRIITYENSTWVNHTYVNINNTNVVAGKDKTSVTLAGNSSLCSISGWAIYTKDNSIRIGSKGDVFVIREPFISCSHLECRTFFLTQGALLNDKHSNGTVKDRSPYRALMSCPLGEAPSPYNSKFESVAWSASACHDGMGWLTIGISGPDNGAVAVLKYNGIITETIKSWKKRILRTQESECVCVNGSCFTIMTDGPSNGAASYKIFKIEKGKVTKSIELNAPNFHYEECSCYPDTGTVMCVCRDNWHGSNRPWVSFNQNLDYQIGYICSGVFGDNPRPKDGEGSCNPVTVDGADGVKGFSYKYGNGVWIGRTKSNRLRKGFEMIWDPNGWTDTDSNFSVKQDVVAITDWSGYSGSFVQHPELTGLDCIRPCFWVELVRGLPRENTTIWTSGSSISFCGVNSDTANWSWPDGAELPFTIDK

Sequence of H1N1 OsR (Q289M4 whole entry, looked up): as above

Question: For `CC(=O)NC1C(N)C(F)C(F)(C(=O)O)OC1[C@H](O)[C@H](O)CO` (stereo in doubt) [Compound 2eq3eq4NH2, 5-Acetamido-2,4,5-trideoxy-4-amino-2α, 3β-difluoro-α-D-erythro-L-gluco-nonulo-pyranosonate], which “Half life for reactivation” value (H1N1 OsR) is on record?
Answer: 2 h

Question: What about the ki (H1N1 OsR; pH 7.6) of the same compound?
Answer: 4.7 ± 0.1 min⁻¹

Question: And the “Half life for reactivation” value (H1N1)?
Answer: 4 h
